Measured values as given in PMC11191095, “QSAR Reveals Decreased Lipophilicity of Polar Residues Determines the Selectivity of Antimicrobial Peptide Activity” (ACS Omega, 2024).
Where a SMILES comes first, the peptide text is derived from it.

How the values were obtained:
Experiment in all cases: microbe, parasite or virus in culture
S. aureus (MRSA) USA300 = format: cell-based, Staphylococcus aureus; settings: S. aureus (MRSA) USA300 (R)
Outline: (§1)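 Peptides 128→2 μg/mL, 2-fold series; inoculum ~5 × 10^5 CFU/mL from overnight culture (OD600 0.01, mixed 1:1). MHB non-cation-adjusted for bacteria, RPMI 1640 + 2% glucose for fungi. 37 °C, 20 h, OD600. MIC50/MIC90 at 50%/90% inhibition; n ≥ 3.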

S. aureus (MRSA) 1199B = format: cell-based, Staphylococcus aureus; settings: S. aureus (MRSA) 1199B (R)
Outline: as §1

[1] = test system: S. aureus (MSSA) ATCC 9144; format: cell-based, Staphylococcus aureus; settings: S. aureus (MSSA) ATCC 9144 (S); shown in µM
Outline: as §1

[2] = test system: S. aureus (MRSA) NCTC 13616; format: cell-based, Staphylococcus aureus; settings: S. aureus (MRSA) NCTC 13616 (R)
Outline: as §1

C. albicans NCPF 3281 = format: cell-based; settings: C. albicans NCPF 3281
Outline: as §1

C. tropicalis NCPF 8760 = format: cell-based; settings: C. tropicalis NCPF 8760
Outline: as §1

C. glabrata NCPF 8018 = format: cell-based; settings: C. glabrata NCPF 8018
Outline: as §1

[3] = test system: C. parapsilosis NCPF 3209; format: cell-based; settings: C. parapsilosis NCPF 3209
Outline: as §1

C. krusei NCPF 3876 = format: cell-based; settings: C. krusei NCPF 3876
Outline: as §1

K. pneumoniae NCTC 13368 = format: cell-based, Klebsiella pneumoniae; settings: K. pneumoniae NCTC 13368 (R)
Outline: as §1

K. pneumoniae M6 = format: cell-based, Klebsiella pneumoniae; settings: K. pneumoniae M6 (S)
Outline: as §1

C. auris TDG 1912 = format: cell-based, Candida auris; settings: C. auris TDG 1912
Outline: as §1

E. coli NCTC 12923 = format: cell-based, Escherichia coli; settings: E. coli NCTC 12923 (S); shown in µM
Outline: as §1

E. coli LEC001 = format: cell-based, Escherichia coli; settings: E. coli LEC001 (R); shown in µM
Outline: as §1

A. baumannii AYE = format: cell-based, Acinetobacter baumannii; settings: A. baumannii AYE (R); shown in µM
Outline: as §1

A. baumannii ATCC 17978 = format: cell-based, Acinetobacter baumannii; settings: A. baumannii ATCC 17978 (S); shown in µM
Outline: as §1

P. aeruginosa NCTC 13437 = format: cell-based, Pseudomonas aeruginosa; settings: P. aeruginosa NCTC 13437 (R)
Outline: as §1

P. aeruginosa PAO1 = format: cell-based, Pseudomonas aeruginosa; settings: P. aeruginosa PAO1 (S); shown in µM
Outline: as §1

[4] = MHB, 37 °C, 20 h, OD600, min. three biological repeats
[5] = 50% growth inhibition, RPMI 1640 + 2% glucose, 37 °C, 20 h
[6] = 90% growth inhibition, RPMI 1640 + 2% glucose, 37 °C, 20 h
[7] = 50% growth inhibition, RPMI 1640 + 2% glucose, 37 °C, 20 h, OD600
[8] = 90% growth inhibition, RPMI 1640 + 2% glucose, 37 °C, 20 h, OD600

CC(C)C[C@H](NC(=O)[C@H](CCCCN)NC(=O)[C@H](CO)NC(=O)[C@H](CCCCN)NC(=O)[C@H](Cc1c[nH]c2ccccc12)NC(=O)[C@H](C)NC(=O)[C@H](CCCCN)NC(=O)[C@H](CCCCN)NC(=O)[C@H](CC(C)C)NC(=O)[C@H](Cc1ccccc1)NC(=O)[C@H](CO)NC(=O)CN)C(=O)N[C@@H](C)C(=O)N[C@@H](CCCCN)C(=O)N[C@@H](CCCCN)C(=O)N[C@@H](CC(C)C)C(=O)N[C@@H](CCCNC(=N)N)C(=O)N[C@@H](C)C(=O)N[C@@H](CCCCN)C(=O)NCC(N)=O [PS-PB-20a] (H-GSFLKKAWKSKLAKKLRAKG-NH2)
3.5 µM: Modal MIC [1] | Modal MIC (A. baumannii ATCC 17978)
55.7 µM: Modal MIC50 (C. krusei NCPF 3876; shown in µM) | Modal MIC (P. aeruginosa PAO1)
> 128 µg/mL: Modal MIC (S. aureus (MRSA) USA300; [4]) | Modal MIC (S. aureus (MRSA) 1199B; [4]) | Modal MIC [2, 4] | Modal MIC50 (C. albicans NCPF 3281; [5]) | Modal MIC90 (C. albicans NCPF 3281; [6]) | Modal MIC50 (C. glabrata NCPF 8018; [5]) | Modal MIC90 (C. glabrata NCPF 8018; [6]) | Modal MIC50 [3, 5] | Modal MIC90 [3, 6] | Modal MIC90 (C. krusei NCPF 3876; [6]) | Modal MIC (K. pneumoniae NCTC 13368; [4]) | Modal MIC (K. pneumoniae M6; [4]) | Modal MIC50 (C. auris TDG 1912; [7]) | Modal MIC90 (C. auris TDG 1912; [8]) | Modal MIC (P. aeruginosa NCTC 13437; [4])
27.8 µM: Modal MIC50 (C. tropicalis NCPF 8760; shown in µM) | Modal MIC90 (C. tropicalis NCPF 8760; shown in µM) | Modal MIC (E. coli LEC001)
13.9 µM: Modal MIC (E. coli NCTC 12923) | Modal MIC (A. baumannii AYE)
> 55.7 µM: Modal MIC (S. aureus (MRSA) USA300; shown in µM) | Modal MIC (S. aureus (MRSA) 1199B; shown in µM) | Modal MIC ([2]; shown in µM) | Modal MIC50 (C. albicans NCPF 3281; shown in µM) | Modal MIC90 (C. albicans NCPF 3281; shown in µM) | Modal MIC50 (C. glabrata NCPF 8018; shown in µM) | Modal MIC90 (C. glabrata NCPF 8018; shown in µM) | Modal MIC50 ([3]; shown in µM) | Modal MIC90 ([3]; shown in µM) | Modal MIC90 (C. krusei NCPF 3876; shown in µM) | Modal MIC (K. pneumoniae NCTC 13368; shown in µM) | Modal MIC (K. pneumoniae M6; shown in µM) | Modal MIC50 (C. auris TDG 1912; shown in µM) | Modal MIC90 (C. auris TDG 1912; shown in µM) | Modal MIC (P. aeruginosa NCTC 13437; shown in µM)

CC(C)C[C@H](NC(=O)[C@H](CCCCN)NC(=O)[C@H](CCCCN)NC(=O)[C@H](C)NC(=O)[C@H](CC(C)C)NC(=O)[C@H](CCCCN)NC(=O)[C@H](CO)NC(=O)[C@H](CCCCN)NC(=O)[C@H](Cc1c[nH]c2ccccc12)NC(=O)[C@H](C)NC(=O)[C@H](CCCCN)NC(=O)[C@H](CCCCN)NC(=O)[C@H](CC(C)C)NC(=O)[C@H](Cc1ccccc1)NC(=O)[C@H](CO)NC(=O)CN)C(N)=O [PS-PB-16a] (H-GSFLKKAWKSKLAKKL-NH2)
33.9 µM: Modal MIC (E. coli LEC001) | Modal MIC (P. aeruginosa PAO1)
67.8 µM: Modal MIC (P. aeruginosa NCTC 13437; shown in µM)
17 µM: Modal MIC [1] | Modal MIC (A. baumannii AYE)
> 67.8 µM: Modal MIC (S. aureus (MRSA) USA300; shown in µM) | Modal MIC (S. aureus (MRSA) 1199B; shown in µM) | Modal MIC ([2]; shown in µM) | Modal MIC50 (C. albicans NCPF 3281; shown in µM) | Modal MIC90 (C. albicans NCPF 3281; shown in µM) | Modal MIC50 (C. tropicalis NCPF 8760; shown in µM) | Modal MIC90 (C. tropicalis NCPF 8760; shown in µM) | Modal MIC50 (C. glabrata NCPF 8018; shown in µM) | Modal MIC90 (C. glabrata NCPF 8018; shown in µM) | Modal MIC50 ([3]; shown in µM) | Modal MIC90 ([3]; shown in µM) | Modal MIC50 (C. krusei NCPF 3876; shown in µM) | Modal MIC90 (C. krusei NCPF 3876; shown in µM) | Modal MIC (K. pneumoniae NCTC 13368; shown in µM) | Modal MIC (K. pneumoniae M6; shown in µM) | Modal MIC50 (C. auris TDG 1912; shown in µM) | Modal MIC90 (C. auris TDG 1912; shown in µM)
8.5 µM: Modal MIC (E. coli NCTC 12923) | Modal MIC (A. baumannii ATCC 17978)
> 128 µg/mL: Modal MIC (S. aureus (MRSA) USA300; [4]) | Modal MIC (S. aureus (MRSA) 1199B; [4]) | Modal MIC [2, 4] | Modal MIC50 (C. albicans NCPF 3281; [5]) | Modal MIC90 (C. albicans NCPF 3281; [6]) | Modal MIC50 (C. tropicalis NCPF 8760; [5]) | Modal MIC90 (C. tropicalis NCPF 8760; [6]) | Modal MIC50 (C. glabrata NCPF 8018; [5]) | Modal MIC90 (C. glabrata NCPF 8018; [6]) | Modal MIC50 [3, 5] | Modal MIC90 [3, 6] | Modal MIC50 (C. krusei NCPF 3876; [5]) | Modal MIC90 (C. krusei NCPF 3876; [6]) | Modal MIC (K. pneumoniae NCTC 13368; [4]) | Modal MIC (K. pneumoniae M6; [4]) | Modal MIC50 (C. auris TDG 1912; [7]) | Modal MIC90 (C. auris TDG 1912; [8])
